# Where two headings read alike, the source gives them in different places.
# What was measured:
# Assay type in all cases: cell-based
# NLRP3 inflammasome = NLRP3 inflammasome (Homo sapiens, UniProt Q96P20); assay: NLRP3 inflammasome activation assay in PBMCs, IL-1β release (ELISA / HTRF); design: were freshly isolated from human peripheral blood from healthy donors; StemCells Technologies; host or cells: primary human PBMCs, LPS-primed, nigericin-stimulated; conditions: LPS primed
# Protocol: Some of the following assays were used to determine the inhibitory activity of the compounds on the NLRP3 inflammasome using a common inflammasome activation stimuli—nigericin.
# (§1) Human peripheral blood mononuclear cells (PBMCs), consisting of lymphocytes (T, B and NK cells), monocytes and dendritic cells, were freshly isolated from human peripheral blood from healthy donors. Cells were obtained through an IRB approved donor program by iXCells Biotechnologies where all the donors were tested for bacterial and viral infections. Cells were purified from peripheral blood using ficoll gradient centrifugation.
# (§2) Fresh or cryopreserved PMBCs were seeded in V-bottom 96-well plate at 0.5-1×10^5 cells per well and incubated overnight at 37° C. with 5% CO2 in RPMI 1640 medium with GlutaMAX supplement, 4.5 g/L D-glucose, 10% Fetal Bovine Serum (FBS), […] Sodium Pyruvate, 1% Penicillin/Streptomycin, 10 mM HEPES and 0.05 mM of β-mercaptoethanol. Freshly isolated or cryopreserved KCs cells were seeded in flat-bottom 96-well plates at 0.6-1.5×10^5 cells/well and incubated overnight at 37° C. 5% CO2 in RPMI 1640 Medium with GlutaMAX supplement, FBS, 1% Penicillin/Streptomycin and 10 mM HEPES. The following day, the cells were primed with 100 ng/mL of lipopolysaccharides (LPS; Sigma Aldrich) in FBS-free RPMI 1640 for 3 h. After the priming step, the media was removed and PBMCs were pre-incubated with serial concentrations of test compounds (0.00017-10 uM) or vehicle (DMSO) for 30 min in FBS-free media prior to addition of the NLRP3 activator. Cells were then stimulated with 10 uM Nigericin (Sigma Aldrich; InvivoGen) for 1.5 h. Plates were centrifuged at 1,500 rpm for 3 minutes to pellet cells and supernatant was transferred into new plates for subsequent experiments.
# (§3) For ELISA assays cells were seeded into 96-well plates. Post study, supernatants were removed and the levels of mature IL-1β, IL18 and TNFα (Quantikine ELISA, R&D systems) were measured in cell conditioned media by ELISA according to manufacturer's instructions.
# Human frozen PBMCs were purchased from StemCells Technologies. Cells were rapidly thawed in 37° C. water bath and resuspended in fresh assay media consisting of RPMI 1640 Medium containing 1% sodium pyruvate, 10 mM HEPES, 2.5 g/L glucose and 55 μM 2-Mercaptoethanol. Cell density was adjusted to 8.1×10^5 cells/mL. Cells were primed by adding lipopolysaccharide (Invivogen Ultrapure lipopolysaccharide from E. coli, tlrl-3pelps) at a final concentration of 100 ng/mL in cell suspension. 37 μL of cell suspension with LPS was seeded per well of a 384 well plate and incubated for 3 hours at 37° C. and 5% CO2. After priming, PBMCs were preincubated with serially diluted test compounds with starting concentration of 40 μM followed by 2-fold dilution for a 20-point curve or vehicle (DMSO) for 30 min in assay media at 37° C. and 5% CO2. Cells were then stimulated with 10 μM nigericin (Invivogen, tlrl-nig-5) for 90 min at 37° C. and 5% CO2 to activate NLRP3 dependent inflammasome pathway and IL-1β release in cell culture supernatant. Cells were centrifuged at 1200 RPM for 1 min and 40 μL of supernatant was transferred into fresh plates and stored at −80° C. until IL-1β analysis.
# 16 μL of supernatant was added to white 384 well HTRF plates, followed by addition of 4 μL of HTRF cocktail in each well. Plates were quickly centrifuged, sealed and incubated overnight at room temperature. Next day, HTRF signal was read on a Pherastar and ratio of 665/620 was calculated based on manufacturer's protocol to obtain concentration of IL-1β in cell culture supernatant.
# PBMCs = assay: CTG (CellTiter-Glo) viability assay in PBMCs; conditions: LPS and nigericin stimulated
# Protocol: as §1, §2
# Viability of compound treated cells was measured using CellTiter-Glo® assay (Promega, Madison, Wis.) that measures the ATP content of cells which is proportional to the number of live cells within a well. This is a counter-screen to establish that the reduction of IL-1β levels in LPS and nigericin stimulated and compound treated cells is not due to cytotoxicity, but rather through the inhibition of the inflammasome pathway. Compounds inhibiting NRLP3 inflammasome activation ultimately increase the viability of LPS and nigericin stimulated cells by blocking NLRP3 mediated pyroptosis that would otherwise lead to cell lysis.
# TNFα = TNFα counter-screen in LPS and nigericin stimulated PBMCs; conditions: human PBMCs
# Protocol: as §1, §2, §3
# TNFα levels of LPS and nigericin stimulated cells were measured by HTRF assay (Cisbio, Bedford, MA). […] Measuring TNFalpha production also serves as a technical counter-screen to eliminate compounds that interfere with the HTRF reagents. Thus compounds that inhibit both IL-1β and TNFα levels are triaged for either being non-selective for inflammasome or interfering with the HTRF readout.
# [1] = 10 uM nigericin, read-out: PBMC IL-1 β IC50
# [2] = PBMC, read-out: PBMC TNF α IC50
# [3] = 10 μM nigericin, read-out: PBMC IL-1β IC50
# [4] = human PBMCs, read-out: PBMC CTG IC50
# Sequence of NLRP3 inflammasome (Q96P20 whole entry): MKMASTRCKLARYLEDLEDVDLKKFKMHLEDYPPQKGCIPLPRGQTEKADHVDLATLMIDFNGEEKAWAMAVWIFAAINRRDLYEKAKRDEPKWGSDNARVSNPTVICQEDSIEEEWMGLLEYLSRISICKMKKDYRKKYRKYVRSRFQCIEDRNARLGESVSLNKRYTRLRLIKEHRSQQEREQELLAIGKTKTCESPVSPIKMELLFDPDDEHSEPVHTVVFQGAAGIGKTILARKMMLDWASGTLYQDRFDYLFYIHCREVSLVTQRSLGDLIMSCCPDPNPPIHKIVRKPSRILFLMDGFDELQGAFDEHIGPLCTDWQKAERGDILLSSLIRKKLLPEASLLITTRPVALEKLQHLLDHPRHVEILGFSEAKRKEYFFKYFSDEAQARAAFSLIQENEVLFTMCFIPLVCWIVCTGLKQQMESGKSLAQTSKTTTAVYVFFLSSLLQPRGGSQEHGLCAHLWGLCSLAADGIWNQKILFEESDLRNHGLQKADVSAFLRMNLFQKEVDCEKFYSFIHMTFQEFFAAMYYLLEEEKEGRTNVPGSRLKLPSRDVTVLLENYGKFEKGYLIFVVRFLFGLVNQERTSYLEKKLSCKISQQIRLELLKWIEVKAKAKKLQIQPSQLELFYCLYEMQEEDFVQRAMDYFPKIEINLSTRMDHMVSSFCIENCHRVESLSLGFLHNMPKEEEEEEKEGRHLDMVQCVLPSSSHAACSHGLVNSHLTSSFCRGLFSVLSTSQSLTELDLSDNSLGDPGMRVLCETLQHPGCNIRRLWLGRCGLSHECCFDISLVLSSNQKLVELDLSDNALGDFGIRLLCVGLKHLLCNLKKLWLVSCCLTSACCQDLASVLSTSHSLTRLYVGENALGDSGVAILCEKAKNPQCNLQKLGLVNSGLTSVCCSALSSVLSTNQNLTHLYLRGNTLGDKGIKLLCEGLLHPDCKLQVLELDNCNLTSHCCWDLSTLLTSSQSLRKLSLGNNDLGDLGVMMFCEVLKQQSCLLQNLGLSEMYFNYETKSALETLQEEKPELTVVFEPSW
Structure (SMILES),IC50 (NLRP3 inflammasome; [1]),IC50 (NLRP3 inflammasome; [3]),"IC50 (PBMCs; Homo sapiens, PBMC)",IC50 (TNFα; [2]),IC50 (PBMCs; [4]),IC50 (TNFα; read-out: PBMC TNFα IC50),IC50 (TNFα; PBMC),IC50 (TNFα; read-out: PBMC TNF α IC50)
"NS(=O)(=NC(=O)Nc1c2c(cc3c1CCC3)CCC2)c1cnn2c1OCCC2 (single isomer, unassigned) [drawing 661]",< 100 nM,,< 100 nM,> 10 µM,,,,
NS(=O)(=NC(=O)Nc1c2c(c(F)c3c1CCC3)CCC2)c1cnn2c1OCCCC2 (stereo not drawn),< 100 nM,,> 10000 nM,> 10 µM,,,,
CN(C)[C@@H]1COc2c(S(=N)(=O)NC(=O)Nc3c4c(cc5c3CCC5)CCC4)cnn2C1 (stereo partly drawn) [drawing 681],100 to 1000 nM,,< 100 nM,> 10 µM,,,,
NS(=O)(=NC(=O)Nc1c2c(c(C(=O)O)c3c1CCC3)CCC2)c1cnn2c1OCCC2 (stereo not drawn),> 10000 nM,,> 10000 nM,> 10 µM,,,,
"CN(C)C1COc2c(S(N)(=O)=NC(=O)Nc3c4c(cc5c3CCC5)CCC4)cnn2C1 (single isomer, unassigned) [Example 34]",,6 nM,,,4 nM,> 10 µM,,
"CO[C@@H]1COc2c(S(N)(=O)=NC(=O)Nc3c(C(C)C)cc(F)cc3C(C)C)cnn2C1 (mixture of isomers) [Example 15, (6S)—N′-((4-fluoro-2,6-diisopropylphenyl)carbamoyl)-6-methoxy-6,7-dihydro-5H-pyrazolo[5,1-b][1,3]oxazine-3-sulfonimidamide]",,300 nM,95 nM,,,,> 10 µM,
NS(=O)(=NC(=O)Nc1c2c(c(F)c3c1CCC3)CCC2)c1cnn2c1OCC2 (stereo not drawn),< 100 nM,,1000 to 10000 nM,> 10 µM,,,,
CO[C@@H]1COc2c(S(=N)(=O)NC(=O)Nc3c4c(c(F)c5c3CCC5)CCC4)cnn2C1 (stereo partly drawn) [drawing 679],100 to 1000 nM,,,,< 100 nM,,,> 10 µM
"Cn1ccc(S(N)(=O)=NC(=O)Nc2c3c(cc4c2CCC4)CCC3)n1 (racemic) [Example 12, N-((1,2,3,5,6,7-hexahydro-s-indacen-4-yl)carbamoyl)-1-methyl-1H-pyrazole-3-sulfonimidamide]",,1390 nM,6 nM,,,,> 10 µM,

# Second part, led by results:
IC50 (NLRP3 inflammasome; [1]),IC50 (NLRP3 inflammasome; [3]),Structure (SMILES),"IC50 (PBMCs; Homo sapiens, PBMC)",IC50 (TNFα; [2]),IC50 (PBMCs; [4]),IC50 (TNFα; read-out: PBMC TNFα IC50),IC50 (TNFα; PBMC),IC50 (TNFα; read-out: PBMC TNF α IC50)
< 100 nM,,CN[C@@H]1COc2c(S(=N)(=O)NC(=O)Nc3c4c(cc5c3CCC5)CCC4)cnn2C1 (stereo partly drawn) [drawing 665],< 100 nM,> 10 µM,,,,
< 100 nM,,N=S(=O)(NC(=O)Nc1c2c(cc3c1CCC3)CCC2)c1cnn2c1OC[C@@H](NCCF)C2 (stereo partly drawn),100 to 1000 nM,> 10 µM,,,,
100 to 1000 nM,,CO[C@@H]1COc2c(S(=N)(=O)NC(=O)Nc3c4c(cc5c3CCC5)CCC4)cnn2C1 (stereo partly drawn) [drawing 667],100 to 1000 nM,> 10 µM,,,,
< 100 nM,,CN(C)[C@@H]1COc2c(S(=N)(=O)NC(=O)Nc3c4c(cc5c3CCC5)CCC4)cnn2C1 (stereo partly drawn) [drawing 682],,,< 100 nM,,,> 10 µM

# Reference: patent publication US12234245B2, “Sulfonimidamide compounds as inhibitors of interleukin-1 activity” (Genentech, Inc., priority 2018, dated 2025)
